Measured values published in the NIST ThermoML archive (doi:10.1021/acs.jced.9b00371).

Conditions: Liquid, Brillouin light scattering method

CCCCCCCC(=O)OC [methyl octanoate]
Conditions	speed of sound [m/s]
298.22 K, 7000 kPa	1316.3
298.3 K, 10010 kPa	1327.9
298.44 K, 1010 kPa	1292.1
298.44 K, 5000 kPa	1307.1
298.6 K, 3000 kPa	1298.2
298.84 K, 90 kPa	1274.5
308.25 K, 3010 kPa	1258.8
308.37 K, 10010 kPa	1291.2
308.42 K, 100 kPa	1236.4
308.49 K, 7010 kPa	1280.4
308.52 K, 1010 kPa	1248.8
308.58 K, 5010 kPa	1270.1
318.18 K, 5010 kPa	1221.3
318.56 K, 7020 kPa	1229.5
318.76 K, 10010 kPa	1242.4
318.91 K, 3010 kPa	1208
319.59 K, 110 kPa	1192.3
319.89 K, 1010 kPa	1194.5
327.96 K, 5010 kPa	1186
328.11 K, 3020 kPa	1171.3
328.36 K, 100 kPa	1158
328.69 K, 7010 kPa	1191.4
328.82 K, 10010 kPa	1209.9
328.88 K, 1010 kPa	1155.4
337.63 K, 100 kPa	1121.6
337.88 K, 7010 kPa	1157.9
338.43 K, 1010 kPa	1125.5
338.46 K, 10010 kPa	1174.8
338.47 K, 5000 kPa	1147.2
338.96 K, 3000 kPa	1134.3
347.39 K, 3000 kPa	1104.6
347.87 K, 10010 kPa	1148.4
348.45 K, 110 kPa	1078.6
348.54 K, 5020 kPa	1109.1
348.77 K, 7000 kPa	1120.5
348.8 K, 1000 kPa	1085.5
357.69 K, 3010 kPa	1071.8
357.74 K, 5000 kPa	1079.2
357.91 K, 10000 kPa	1112.7
358.16 K, 100 kPa	1044.6
358.25 K, 7000 kPa	1095.1
358.56 K, 1010 kPa	1049.3
367.26 K, 5000 kPa	1049.2
367.28 K, 3000 kPa	1038.1
367.29 K, 110 kPa	1015.5
367.47 K, 10010 kPa	1078.4
367.73 K, 7010 kPa	1060.7
368.05 K, 1000 kPa	1017.5
377.8 K, 1000 kPa	989.1
378.03 K, 7000 kPa	1027.3
378.16 K, 4990 kPa	1013.1
378.27 K, 100 kPa	975.6
378.29 K, 10000 kPa	1047.1
378.6 K, 3000 kPa	1000.4
387.15 K, 110 kPa	947.3
387.64 K, 3000 kPa	964.7
387.88 K, 10010 kPa	1017.7
388.01 K, 7000 kPa	991.8
388.02 K, 1000 kPa	952.1
388.04 K, 5000 kPa	978.4
397.22 K, 1010 kPa	922.4
397.37 K, 3010 kPa	934
397.49 K, 10010 kPa	988
397.57 K, 7010 kPa	963.7
397.59 K, 5010 kPa	949.2
397.71 K, 100 kPa	910.7
407.84 K, 5010 kPa	916.3
408.01 K, 10010 kPa	954.1
408.03 K, 3000 kPa	896.1
408.14 K, 100 kPa	873.1
408.48 K, 7010 kPa	933.8
409.43 K, 1000 kPa	879.8
417.31 K, 1010 kPa	850.6
417.49 K, 110 kPa	841.4
417.49 K, 5000 kPa	885.5
417.57 K, 7000 kPa	904.2
417.65 K, 10000 kPa	925.4
417.75 K, 3000 kPa	867.9
427.78 K, 110 kPa	811.6
427.88 K, 7010 kPa	873.7
427.9 K, 1010 kPa	822.3
427.93 K, 3010 kPa	837.5
427.94 K, 10010 kPa	899.7
427.95 K, 5010 kPa	855.8
438.55 K, 100 kPa	775.1
438.61 K, 1000 kPa	780.2
438.61 K, 10010 kPa	866.1
438.81 K, 7000 kPa	838.7
438.87 K, 5000 kPa	823.4
438.94 K, 3010 kPa	803.1
447.87 K, 1010 kPa	754.6
447.88 K, 5000 kPa	793.5
447.92 K, 7000 kPa	813.8
447.96 K, 3010 kPa	776.7
447.96 K, 10000 kPa	841
448.01 K, 110 kPa	744.4
457.92 K, 1000 kPa	724.7
458.07 K, 5010 kPa	760.9
458.12 K, 7010 kPa	782.2
458.17 K, 3000 kPa	744.1
458.18 K, 10010 kPa	810.7
467.43 K, 10010 kPa	784.5
467.58 K, 7010 kPa	759.7
467.9 K, 5000 kPa	738.9
468.47 K, 1010 kPa	694.8
468.68 K, 3000 kPa	713.7
476.82 K, 5010 kPa	710.8
477 K, 10010 kPa	759.6
477.06 K, 1000 kPa	665
477.26 K, 7010 kPa	729
477.88 K, 3010 kPa	685.8
486.8 K, 1000 kPa	631
486.87 K, 3000 kPa	654.3
486.92 K, 5010 kPa	682
486.96 K, 7010 kPa	700
487 K, 10010 kPa	738.2
498.13 K, 3010 kPa	625.4
498.28 K, 7000 kPa	667.5
498.28 K, 10000 kPa	705
498.41 K, 5000 kPa	644.1
498.83 K, 1000 kPa	596.6
507.85 K, 1010 kPa	568.9
507.87 K, 7000 kPa	646.1
507.89 K, 3010 kPa	596.3
507.91 K, 5010 kPa	620.4
507.91 K, 10000 kPa	680.6
517.71 K, 3000 kPa	567.5
517.73 K, 1000 kPa	534.7
517.79 K, 7000 kPa	619
517.81 K, 5000 kPa	594.2
518.17 K, 10000 kPa	658.9
527.51 K, 7010 kPa	600
527.6 K, 1010 kPa	500
527.66 K, 3010 kPa	537.5
528.05 K, 10000 kPa	631.9
528.28 K, 5010 kPa	569.1
537.38 K, 1000 kPa	472.9
537.57 K, 7000 kPa	569.9
537.63 K, 3010 kPa	511.3
537.67 K, 5000 kPa	543.3
537.72 K, 9990 kPa	609.6
547.06 K, 1000 kPa	438.8
547.13 K, 5010 kPa	516
547.47 K, 10010 kPa	583.9
547.67 K, 7000 kPa	544
547.87 K, 3000 kPa	480.9
557.84 K, 1000 kPa	403.8
557.94 K, 5010 kPa	489.3
558.16 K, 7000 kPa	515.9
558.18 K, 10010 kPa	561.2
558.2 K, 3000 kPa	448
567.35 K, 1010 kPa	371.2
567.7 K, 5000 kPa	461
567.81 K, 7000 kPa	495.4
567.91 K, 3010 kPa	418.8
567.95 K, 10010 kPa	543.8
577.4 K, 3010 kPa	389.4
577.79 K, 5000 kPa	432.1
577.89 K, 7000 kPa	469.8
578.16 K, 10000 kPa	522.9
587.88 K, 3000 kPa	361.9
588.02 K, 5010 kPa	411.1
588.47 K, 7010 kPa	450.4
597.58 K, 3000 kPa	331.4
598.07 K, 7000 kPa	426.9
598.29 K, 5010 kPa	384.1
608.09 K, 7010 kPa	400.7
608.23 K, 5000 kPa	353.7
608.38 K, 3000 kPa	294.3
